Laboratory results: patent publication US20180235234A1, “COMPOSITIONS COMPRISING A BIOLOGICAL CONTROL AGENT AND AN INSECTICIDE” (priority 2012, published 2018)

Assays:
Format in all cases: in vivo
Phaedon cochleariae = Phaedon cochleariae spray test, Chinese cabbage leaf disks; details: 0.16 g ai/ha; mortality
Procedure: (§1) For all examples the efficiencies of the compositions comprising at least one BCA and at least one specific insecticide has been determined by the “Colby-formula”. The expected efficacy of a given combination of two compounds is calculated as follows (see Colby, S. R., “Calculating Synergistic and antagonistic Responses of Herbicide Combinations”, Weeds 15, pp. 20-22, 1967): If • X is the efficacy expressed in % mortality of the untreated control for test compound A at a concentration of m ppm respectively m g/ha, • Y is the efficacy expressed in % mortality of the untreated control for test compound B at a concentration of n ppm respectively n g/ha, • E is the efficacy expressed in % mortality of the untreated control using the mixture of A and B at m and n ppm respectively m and n g /ha, then
(§2) If the observed insecticidal efficacy of the combination is higher than the one calculated as “E”, then the combination of the two compounds is more than additive, i.e., there is a synergistic effect.
Phaedon cochleariae—Spray Test […]
After the specified period of time, mortality in % is determined. […] The mortality values determined thus are recalculated using the Colby-formula (see above).

Myzus persicae = Myzus persicae spray test (MYZUPE), Chinese cabbage leaf disks; details: mortality
Procedure: as §1, §2
Myzus persicae—Spray Test (MYZUPE)
(§3) To produce a suitable preparation of active compound, 1 part by weight of active compound is mixed with the stated amount of solvent and emulsifier, and the concentrate is diluted with emulsifier-containing water to the desired concentration. To produce a suitable preparation of a spore suspension the spores are diluted with emulsifier-containing water to the desired concentration.
Chinese cabbage (Brassica pekinensis) leaf—disks infected with all instars of the green peach aphid (Myzus persicae), are sprayed with a preparation of the active ingredient of the desired concentration.
After the specified period of time, mortality in % is determined. 100% means all aphids have been killed; 0% means none of the aphids have been killed. The mortality values determined thus are recalculated using the Colby-formula (see above).

Spodoptera frugiperda [1] = experiment: Spodoptera frugiperda spray test, maize leaf sections; details: mortality
Procedure: as §1, §2
(§4) Spodoptera frugiperda—Spray Test
as §3, with “preparation of the active compound,” for “preparation of active compound,”
Maize (Zea mais) leaf sections are sprayed with a preparation of the active ingredient of the desired concentration. Once dry, the leaf sections are infested with fall armyworm larvae (Spodoptera frugiperda).
After the specified period of time, mortality in % is determined. 100% means all caterpillars have been killed and 0% means none of the caterpillars have been killed. The mortality values determined thus are recalculated using the Colby-formula (see above).

Spodoptera frugiperda [2] = experiment: Spodoptera frugiperda spray test, cotton leaves; details: mortality
Procedure: as §4
To produce a suitable preparation of active compound, 1 part by weight of active compound was mixed with the stated amount of solvent and was diluted with water, containing an emulsifier concentration of 1000 ppm, to the desired concentration. To produce a suitable preparation of a spore suspension the spores were diluted with emulsifier-containing water to the desired concentration. Further test concentrations were prepared by dilution with emulsifier-containing water. Ammonium salt and/or penetration enhancer in a dosage of 1000 ppm were added if necessary.
Cotton leaves (Gossypium hirsutum) were treated by being sprayed with the preparation of the active compound of the desired concentration and were infested with caterpillars of the fall army worm (Spodoptera frugiperda).
After the specified period of time % mortality was determined. 100% means all the caterpillars were killed, and 0% means none of the caterpillars were killed.

Aphis gossypii = Aphis gossypii spray test, cotton leaves; details: 2 ppm; mortality
Procedure: as §1, §2
Aphis gossypii—Spray Test […]
After the specified period of time, the mortality in % is determined. […] The mortality values determined thus are recalculated using the Colby-formula (see above).

Structure (SMILES): CC1(C)C(C=C(Cl)Cl)C1C(=O)OC(C#N)c1ccc(F)c(Oc2ccccc2)c1 (stereo not drawn) [ß-Cyfluthrin (I106), beta-Cyfluthrin]
- Efficacy in % after 6 d (Phaedon cochleariae): 0%
- Efficacy in % after 1 d (Myzus persicae; 0.16 g/ha): 0%
- Efficacy in % after 6 d (Myzus persicae; 0.16 g/ha): 0%
- Efficacy in % after 6 d (Myzus persicae; 2 g/ha): 0%
- Efficacy in % after 6 d (Spodoptera frugiperda [1]; 0.16 g ai/ha): 0%
- Efficacy in % after 6 d (Spodoptera frugiperda [1]; 0.4 g ai/ha): 33%

Structure (SMILES): Cc1c(COC(=O)[C@@H]2[C@H](/C=C(\Cl)C(F)(F)F)C2(C)C)cccc1-c1ccccc1 (racemic) [Bifenthrin]
- Efficacy in % after 3 days (Spodoptera frugiperda [2]; 0.5 ppm): 0%
- Efficacy in % after 6 days (Spodoptera frugiperda [2]; 0.5 ppm): 20%
- Efficacy in % after 2 days (Spodoptera frugiperda [2]; 2 ppm): 20%
- Efficacy in % after 2 days (Spodoptera frugiperda [2]; 8 ppm): 60%

Structure (SMILES): Cc1c(F)c(F)c(COC(=O)[C@@H]2[C@H](/C=C(\Cl)C(F)(F)F)C2(C)C)c(F)c1F (racemic) [Tefluthrin (I134), Tefluthrin]
- Efficacy in % after 6 d (Myzus persicae; 2 g/ha): 0%
- Efficacy in % after 6 d (Spodoptera frugiperda [1]; 0.4 g ai/ha): 17%
- Efficacy in % after 6 d (Spodoptera frugiperda [1]; 4 g ai/ha): 50%
- Efficacy in % after 2 d (Spodoptera frugiperda [1]; 10 g ai/ha): 0%
- Efficacy in % after 1 d (Aphis gossypii): 15%

Structure (SMILES): CC1(C)[C@H](C(=O)O[C@H](C#N)c2cccc(Oc3ccccc3)c2)[C@@H]1C=C(Br)Br [Deltamethrin (I116), Deltamethrin]
- Efficacy in % after 6 d (Myzus persicae; 0.032 g/ha): 0%
